Laboratory results: patent US20250361230A1, “LATS Inhibitors and Uses Thereof” (The USA, as Represented by the Secretary, Dept. of Heath …, priority 2022, published 2025)
Where two headings read alike, the source gives them in different places.

Tests used:
Assay type in all cases: biochemical
[1] = biological target: T1, LATS1 (Homo sapiens, UniProt O95835); test: RBC HotSpot kinase assay (33P-ATP, P81 filter-binding), LATS1
T1 sequence (O95835 1-1130): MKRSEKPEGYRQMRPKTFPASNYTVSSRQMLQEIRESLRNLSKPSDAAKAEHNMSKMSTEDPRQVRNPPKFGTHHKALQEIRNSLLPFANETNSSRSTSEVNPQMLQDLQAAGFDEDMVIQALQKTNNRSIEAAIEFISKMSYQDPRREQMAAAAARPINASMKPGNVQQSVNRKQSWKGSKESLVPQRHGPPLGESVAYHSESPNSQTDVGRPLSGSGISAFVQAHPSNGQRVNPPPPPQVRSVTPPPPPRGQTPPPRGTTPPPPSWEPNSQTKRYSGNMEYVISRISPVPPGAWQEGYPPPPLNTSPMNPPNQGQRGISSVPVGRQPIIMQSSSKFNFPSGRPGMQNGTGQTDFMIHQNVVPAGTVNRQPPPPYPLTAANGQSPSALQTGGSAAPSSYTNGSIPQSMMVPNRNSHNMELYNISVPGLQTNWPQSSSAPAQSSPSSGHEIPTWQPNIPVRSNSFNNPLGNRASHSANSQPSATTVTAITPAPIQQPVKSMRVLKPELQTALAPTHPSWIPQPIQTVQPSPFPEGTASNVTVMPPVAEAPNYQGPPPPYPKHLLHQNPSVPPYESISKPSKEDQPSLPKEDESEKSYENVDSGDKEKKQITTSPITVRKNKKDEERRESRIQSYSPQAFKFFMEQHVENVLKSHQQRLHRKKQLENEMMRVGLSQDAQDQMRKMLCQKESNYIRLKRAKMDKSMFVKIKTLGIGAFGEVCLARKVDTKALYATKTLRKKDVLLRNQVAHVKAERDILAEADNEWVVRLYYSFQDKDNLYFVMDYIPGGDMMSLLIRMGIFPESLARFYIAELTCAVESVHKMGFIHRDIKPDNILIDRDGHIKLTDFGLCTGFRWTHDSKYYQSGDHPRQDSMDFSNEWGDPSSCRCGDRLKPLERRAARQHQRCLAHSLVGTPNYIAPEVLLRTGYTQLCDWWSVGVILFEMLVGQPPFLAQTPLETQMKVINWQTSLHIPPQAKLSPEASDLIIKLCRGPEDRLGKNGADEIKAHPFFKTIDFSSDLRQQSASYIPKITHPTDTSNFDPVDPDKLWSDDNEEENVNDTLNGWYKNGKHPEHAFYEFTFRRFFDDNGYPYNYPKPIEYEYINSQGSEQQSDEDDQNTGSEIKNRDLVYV
Summary of the method: (§1)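 Compounds were run as single 10-point titrations to give IC50 values in nM. Each kinase was mixed with substrate and cofactors in 20 mM Hepes pH 7.5 reaction buffer with 1% DMSO, then exposed to compound for 20 min. 33P-ATP was added for a 2 h room-temperature reaction, with activity measured by P81 filter binding.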

[2] = biological target: T2, LATS2 (Homo sapiens, UniProt Q9NRM7); test: RBC HotSpot kinase assay (33P-ATP, P81 filter-binding), LATS2
T2 sequence (Q9NRM7 1-1088): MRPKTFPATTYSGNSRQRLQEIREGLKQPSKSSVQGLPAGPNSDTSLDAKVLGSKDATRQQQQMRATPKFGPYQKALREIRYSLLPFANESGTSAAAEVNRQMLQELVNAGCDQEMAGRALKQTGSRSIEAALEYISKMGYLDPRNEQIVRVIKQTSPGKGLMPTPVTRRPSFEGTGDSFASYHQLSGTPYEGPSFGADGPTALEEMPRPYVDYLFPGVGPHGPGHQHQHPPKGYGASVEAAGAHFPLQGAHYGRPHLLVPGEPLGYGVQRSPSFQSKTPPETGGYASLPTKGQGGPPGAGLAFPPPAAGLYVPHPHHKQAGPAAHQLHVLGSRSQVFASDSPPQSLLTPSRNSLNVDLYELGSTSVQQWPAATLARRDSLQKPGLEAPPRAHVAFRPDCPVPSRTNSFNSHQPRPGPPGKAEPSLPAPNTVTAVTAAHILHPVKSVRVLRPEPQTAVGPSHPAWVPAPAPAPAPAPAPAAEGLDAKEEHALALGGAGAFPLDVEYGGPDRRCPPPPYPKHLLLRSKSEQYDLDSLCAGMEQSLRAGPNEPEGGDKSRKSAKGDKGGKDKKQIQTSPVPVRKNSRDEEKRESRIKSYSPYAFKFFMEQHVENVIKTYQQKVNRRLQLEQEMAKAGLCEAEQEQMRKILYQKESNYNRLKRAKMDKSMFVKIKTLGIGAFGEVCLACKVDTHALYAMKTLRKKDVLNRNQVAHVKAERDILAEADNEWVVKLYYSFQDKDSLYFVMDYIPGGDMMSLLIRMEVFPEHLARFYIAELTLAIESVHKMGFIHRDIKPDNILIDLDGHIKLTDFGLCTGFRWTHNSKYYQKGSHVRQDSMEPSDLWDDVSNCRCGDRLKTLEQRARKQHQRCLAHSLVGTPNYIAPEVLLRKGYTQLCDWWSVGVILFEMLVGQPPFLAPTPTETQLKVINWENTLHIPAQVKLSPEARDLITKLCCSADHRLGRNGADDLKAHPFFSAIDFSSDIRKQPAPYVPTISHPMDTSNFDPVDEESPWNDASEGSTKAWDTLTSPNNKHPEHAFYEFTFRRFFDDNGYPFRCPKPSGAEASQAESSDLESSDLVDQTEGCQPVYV
Summary of the method: as §1

[3] = biological target: AKT (Homo sapiens, UniProt P31749); test: RBC HotSpot kinase assay (33P-ATP, P81 filter-binding), AKT
Chain of AKT (P31749 whole entry): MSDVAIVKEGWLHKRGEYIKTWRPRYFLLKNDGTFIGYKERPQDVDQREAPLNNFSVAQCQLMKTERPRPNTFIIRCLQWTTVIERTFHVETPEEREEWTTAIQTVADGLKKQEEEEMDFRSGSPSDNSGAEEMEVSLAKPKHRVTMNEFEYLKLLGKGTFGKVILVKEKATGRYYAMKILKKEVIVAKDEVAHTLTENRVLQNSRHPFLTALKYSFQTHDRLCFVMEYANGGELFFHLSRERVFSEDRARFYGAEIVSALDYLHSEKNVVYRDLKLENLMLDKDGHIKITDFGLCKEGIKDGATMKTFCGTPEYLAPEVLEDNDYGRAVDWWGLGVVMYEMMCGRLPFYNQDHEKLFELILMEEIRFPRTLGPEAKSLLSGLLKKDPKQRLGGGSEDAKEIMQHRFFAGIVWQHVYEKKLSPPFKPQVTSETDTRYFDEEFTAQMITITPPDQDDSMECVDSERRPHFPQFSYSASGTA
Summary of the method: as §1

[4] = Table 28, biochemical kinase assay, read-out: LATS1 IC50
[5] = Table 28, biochemical kinase assay, read-out: LATS2 IC50
[6] = Table 28, biochemical kinase assay, read-out: AKT IC50
[7] = biochemical kinase inhibition, read-out: LATS1 IC50
[8] = biochemical kinase inhibition, read-out: LATS2 IC50
[9] = biochemical kinase inhibition, read-out: AKT IC50

Structure (SMILES)	IC50 [1, 4] [nM]	IC50 [2, 5] [nM]	IC50 [3, 6] [nM]	further results
NCc1ccc(-c2c(Cl)cnc3[nH]ccc23)cc1 [Compound 272, (4-(5-chloro-1H-pyrrolo[2,3-b]pyridin-4-yl)phenyl) methanamine]	447	268	3100	–
OC1(c2ccc(-c3ccnc4[nH]cc(Br)c34)cc2)CCNCC1 [Compound 117, 4-(4-(3-bromo-1H-pyrrolo[2,3-b]pyridin-4-yl)phenyl)piperidin-4-ol]	4.2	3.2	240	–
C[C@@H]1CN(C)C[C@H](C)[C@@]1(O)c1ccc(-c2ccnc3[nH]ccc23)cc1 [Compound 38, (3R,4s,5S)-4-(4-(1H-pyrrolo[2,3-b]pyridin-4-yl)phenyl)-1,3,5-trimethylpiperidin-4-ol]	28	27	181	–
OC1(c2ccc(-c3ccnc4[nH]cc(Br)c34)nc2)C[C@H]2CC[C@@H](C1)N2 (stereo partly drawn) [Compound 119, (1R,5S)-3-(6-(3-bromo-1H-pyrrolo[2,3-b]pyridin-4-yl)pyridin-3-yl)-8-azabicyclo[3.2.1]octan-3-ol]	–	–	–	IC50 [1]: 29.8 nM; IC50 [2]: 184 nM; IC50 [3]: 2590 nM
Cc1cc(-c2ccnc3[nH]ccc23)ncc1CN [Compound 217, (4-methyl-6-(1H-pyrrolo[2,3-b]pyridin-4-yl)pyridin-3-yl)methanamine]	8.2	12	3160	–
Cc1cc(-c2ccnc3[nH]cc(C#N)c23)cc(F)c1[C@@]1(O)[C@H](C)CN(C(=O)[C@@H]2CCCN2)C[C@@H]1C [Compound 2013, 4-(4-((3S,4S,5R)-1-(L-prolyl)-4-hydroxy-3,5-dimethylpiperidin-4-yl)-3-fluoro-5-methylphenyl)-1H-pyrrolo[2,3-b]pyridine-3-carbonitrile]	–	–	–	IC50 [1, 7]: 5.7 nM; IC50 [2, 8]: 2.9 nM; IC50 [3, 9]: 330 nM
Cc1cc(-c2ccnc3[nH]cc(C#N)c23)ccc1[C@@]1(O)[C@H](C)CN(C(=O)[C@H](N)CO)C[C@@H]1C [Compound 2016, 4-(4-((3S,4S,5R)-1-(D-seryl)-4-hydroxy-3,5-dimethylpiperidin-4-yl)-3-methylphenyl)-1H-pyrrolo[2,3-b]pyridine-3-carbonitrile]	–	–	–	IC50 [1, 7]: 9.2 nM; IC50 [2, 8]: 6.4 nM; IC50 [3, 9]: 48.8 nM
C=C(C)c1cc(-c2ccnc3[nH]ccc23)ccc1CN [Compound 240, (2-(prop-1-en-2-yl)-4-(1H-pyrrolo[2,3-b]pyridin-4-yl)phenyl) methanamine]	4.3	33.8	178	–
C[Si](C)(C)CCS(=O)(=O)N1CCC(c2ccc(-c3ccnc4[nH]cc(F)c34)cc2Cl)CC1 [Compound 162, 4-(3-chloro-4-(1-((2-(trimethylsilyl)ethyl)sulfonyl)piperidin-4-yl)phenyl)-3-fluoro-1H-pyrrolo[2,3-b]pyridine]	> 10000	> 10000	> 10000	–
Cc1cc(-c2ccnc3[nH]cc(C#N)c23)cc(F)c1[C@@]1(O)[C@H](C)CN(C(=O)[C@H](N)CO)C[C@@H]1C (single isomer, unassigned) [Compound 2006]	–	–	–	IC50 [1, 7]: 3.6 nM; IC50 [2, 8]: 1.4 nM; IC50 [3, 9]: 126 nM
Cc1cc(-c2ccnc3[nH]cc(Cl)c23)cc(F)c1[C@@]1(O)[C@H](C)CN(C(=O)CN)C[C@@H]1C [Compound 317, 2-amino-1-((3S,4s,5R)-4-(4-(3-chloro-1H-pyrrolo[2,3-b]pyridin-4-yl)-2-fluoro-6-methylphenyl)-4-hydroxy-3,5-dimethylpiperidin-1-yl)ethan-1-one]	7.6	3.8	186	–

More lines, main results first:

IC50 [1, 4] [nM]	IC50 [2, 5] [nM]	IC50 [3, 6] [nM]	Structure (SMILES)	further results
19	40	4300	Cc1cncc(-c2c[nH]c3nccc(-c4ccc(C5(O)CCNCC5)cc4)c23)c1 [Compound 127, 4-(4-(3-(5-methylpyridin-3-yl)-1H-pyrrolo[2,3-b]pyridin-4-yl)phenyl)piperidin-4-ol]	–
3.4	1.9	474	Cc1cc(-c2ccnc3[nH]cc(F)c23)cc(F)c1C1(O)[C@H](C)CN(C2CCOCC2)C[C@@H]1C (stereo partly drawn) [Compound 33, (3S,5R)-4-(2-fluoro-4-(3-fluoro-1H-pyrrolo[2,3-b]pyridin-4-yl)-6-methylphenyl)-3,5-dimethyl-1-(tetrahydro-2H-pyran-4-yl)piperidin-4-ol]	–
69.8	118	1060	CN1C[C@H]2CC[C@@H](C1)C2(O)c1ccc(-c2ccnc3[nH]cc(F)c23)cc1Cl (stereo partly drawn) [Compound 136, (1R,5S,8s)-8-(2-chloro-4-(3-fluoro-1H-pyrrolo[2,3-b]pyridin-4-yl)phenyl)-3-methyl-3-azabicyclo[3.2.1]octan-8-ol]	–
12.3	12.8	700	C[C@@H]1CN(C(=O)CN(C)C)C[C@H](C)C1(O)c1c(F)cc(-c2ccnc3[nH]cc(F)c23)cc1F (stereo partly drawn) [Compound 80, 1-((3S,5R)-4-(2,6-difluoro-4-(3-fluoro-1H-pyrrolo[2,3-b]pyridin-4-yl)phenyl)-4-hydroxy-3,5-dimethylpiperidin-1-yl)-2-(dimethylamino) ethan-1-one]	–
38	34	463	CCC1(c2ccc(-c3ccnc4[nH]cc(F)c34)cc2Cl)CCNCC1 [Compound 199, 4-(3-chloro-4-(4-ethylpiperidin-4-yl)phenyl)-3-fluoro-1H-pyrrolo[2,3-b]pyridine]	–
24	144	437	COCCNc1cc(-c2ccnc3[nH]ccc23)ccc1CN [Compound 231, 2-(aminomethyl)-N-(2-methoxyethyl)-5-(1H-pyrrolo[2,3-b]pyridin-4-yl)aniline]	–
8.2	12	3160	Cc1cc(-c2ccnc3[nH]ccc23)cnc1CN [Compound 252, (3-methyl-5-(1H-pyrrolo[2,3-b]pyridin-4-yl)pyridin-2-yl)methanamine]	–
24.6	19.3	885	C[C@@H]1CN(C(=O)C(C)(C)N)C[C@H](C)C1(O)c1c(F)cc(-c2ccnc3[nH]cc(F)c23)cc1F (stereo partly drawn) [Compound 77, 2-amino-1-((3S,5R)-4-(2,6-difluoro-4-(3-fluoro-1H-pyrrolo[2,3-b]pyridin-4-yl)phenyl)-4-hydroxy-3,5-dimethylpiperidin-1-yl)-2-methylpropan-1-one]	–
